From patent US20160159861A1, “APJ Receptor Compounds” (priority 2013, published 2016)
Where two headings read alike, the source gives them in different places. Peptide text beside a SMILES is read from it.

Assays:
rat peritoneal cells = assay: Ex vivo histamine release assay in rat peritoneal cells (vs. Compound 48/80); type: cell-based
Text: More desirable pharmacological tolerability can include a decrease in an undesirable side effect (e.g., histamine release, an indicator of mast cell degranulation) without a significant loss in activity of the compound.
Screening of the variant G protein receptor compounds against a control compound for histamine release can be done following standard assays. The standard assay can include comparison to a control compound known to elicit a histamine response (e.g., 48/80 having CAS No. 94724-12-6). Such an assay using rat peritoneal cells is described herein for the APJ compounds.
Test compounds were assayed in the ex vivo histamine release assay using a 3-point dose response. Concentrations of total histamine contained in the cells is used to correct for variability in the numbers of mast cells in the lavage per well.
Resident peritoneal cells were harvested from naïve Sprague Dawley rats (male 200-300 gr, Charles River). Rats were euthanized by CO2 asphyxiation and a skin incision was made along the middle-line of the abdomen. Thirty milliliters of HBSS (HyClone, cat#SH 30268.01) containing 20 mM HEPES and 0.2% BSA (heretofore Assay Buffer) were injected intraperitoneally using a 30 mL syringe with the attached 18 gauge needle. The abdomen was gently lavaged for 1-2 min and 7-10 milliliters of the peritoneal lavage were carefully aspirated. Cell count in the peritoneal lavage was determined using Cellometer Auto T4 (Nexcelom Bioscience). The peritoneal cell count was adjusted to […] cells/mL in Assay Buffer. Rat peritoneal cells were kept at room temperature before and during the assay.
For the 10-point assay, 3-fold serial dilutions were prepared for each test compound in 100% DMSO in 96-well plates (Greiner Bio One, Ref#651261)—from 100 μM down to […]. For the 3-point assay, 10-fold serial dilutions were prepared in 100% DMSO at 100 μM, 10 μM and 1 μM concentrations. From this plate, 5 μL of compound were transferred to a new plate containing 45 μL Assay Buffer to generate a compound plate with 10× final concentrations in 10% DMSO with Assay Buffer. In the final plates, column 11 contained 1% DMSO for the low-histamine-releasing control.
Suspensions of the rat peritoneal cells (90 μL of 2.75×10^5 cells/mL; →25,000 cells per well) were introduced into each well of a new 96-well microtiter plate (Greiner Bio One, Ref#651261) and 10 μL aliquots of the serially diluted compounds were transferred to the cells in each well. The microtiter plate was incubated for 30 min at room temperature. Following incubation cells were spun down (500 rpm, 7 min) and supernatants were collected for further analysis. Supernatants were diluted 6 times with the assay buffer (15 μL to 75 μL, for 90 μL total) and released histamine content was determined using HTRF® Histamine assay kit (CisBio, cat#62HTMPEB). To measure the total histamine in each well, cells were lysed by addition of 15 μL 5% TritonX-100 to each well followed by incubation for 15 minutes. The plates were then spun at 3000 rpm for 5 minutes, and 10 μL of supernatant were diluted 9-fold in assay buffer (10 μL to 80 μL for 90 μL total) to make the “total” histamine plate. Histamine content was measured as described above for the “released” histamine values.
The standard positive control was Compound 48/80 (Enzo Life Sciences), a oligomeric polymer mixture produced by the condensation of N-methyl-p-methoxyphenethylamine with formaldehyde. The trimer is the most abundant in the mixture Compound 48/80 is used to promote mast cell degranulation and activates G proteins by a mechanism analogous to that of mastoparan. […] See references: T. Higashijima et al., J. Biol., Chem., 265 14176 (1990); M. Mousli et al., FEBS Lett., 259 260 (1990); K. Gietzen et al., Biochim. Biophys. Acta, 736 109 (1983); K. Gietzen, Biochem. J., 1983 216 611 and C. Bronner et al., Biochim. Biophys. Acta, 920 301(1987).

[1] = target: T1, human APJ receptor (hAPJ) (Homo sapiens, UniProt P35414); assay: HTRF cAMP assay: inhibition of NKH477-stimulated cAMP in HEK cells stably expressing hAPJ; type: cell-based; conditions: for Emax: HEK293, read-out: % IA, bound stated; for % IA (cAMP inhibition, hAPJ HEK): intrinsic activity; for Ranking: composite class of EC50 (hAPJ), % IA and % histamine or formal (+) charge; for inhibition of NKH477-stimulated increase in cAMP, dose dependent: concentration response curves, FIGS. 1 and 2, HEK cells stably expressing APJ
T1 construct: expressed in transfected cells
T1 sequence (P35414 1-380): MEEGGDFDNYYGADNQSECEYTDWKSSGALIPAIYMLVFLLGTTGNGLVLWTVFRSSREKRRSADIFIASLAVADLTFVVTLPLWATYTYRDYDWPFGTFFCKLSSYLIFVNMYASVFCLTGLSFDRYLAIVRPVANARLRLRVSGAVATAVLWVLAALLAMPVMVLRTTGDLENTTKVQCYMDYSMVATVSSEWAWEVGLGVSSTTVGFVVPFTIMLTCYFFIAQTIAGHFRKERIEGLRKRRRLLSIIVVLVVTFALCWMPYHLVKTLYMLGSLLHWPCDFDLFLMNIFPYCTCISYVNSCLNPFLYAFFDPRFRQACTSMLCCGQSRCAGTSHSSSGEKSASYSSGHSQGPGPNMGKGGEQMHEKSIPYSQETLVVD
Summary of the method: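 HEK cells stably expressing hAPJ, induced with 1 nG/mL doxycycline and seeded overnight at 40 k/well. cAMP read by HTRF competitive immunoassay using cryptate-labeled anti-cAMP antibody and d2-labeled cAMP.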

[2] = HTRF cAMP Assay, per data of Table 6
[3] = HTRF cAMP Assay, per data of Table 6, read-out: EC50 (hAPJ), inhibition of cAMP production, bound stated
[4] = Table 6, hAPJ HEK cells, NKH477-stimulated cAMP, read-out: EC50 (cAMP inhibition, hAPJ HEK)

## CCCCCCCCCCCCCCCC(=O)N[C@@H](CC(=O)O)C(=O)N[C@H](C(=O)N[C@@H](Cc1ccccc1)C(=O)N[C@@H](CCC(N)=O)C(=O)N[C@@H](CO)C(=O)N[C@@H](CCC(=O)O)C(=O)N[C@H](CCCCN)C(=O)N[C@@H](CCCNC(=N)N)C(=O)N[C@@H](CCCNC(=N)N)C(=O)N[C@@H](CO)C(=O)N[C@@H](C)C(=O)N[C@@H](CC(=O)O)C(=O)N[C@@H](CCC(N)=O)C(=O)N[C@@H](Cc1ccccc1)C(=O)N[C@H](C(N)=O)[C@@H](C)CC)C(C)C [Compound 17] (HELM PEPTIDE1{[CCCCCCCCCCCCCCCC(=O)[*:2]].D.V.F.Q.S.E.[dK].R.R.S.A.D.Q.F.I.[am]}$$$$V2.0)
Rat peritoneal cells
  Histamine (% vs. 48/80): 1%
[1]; [2]
  Emax: ≥ 80%
[1]; [3]
  EC50: ≤ 25 nM
[1]; [4]
  EC50: 24 nM
[1]; Table 6, hAPJ HEK cells
  % IA (cAMP inhibition, hAPJ HEK): 111%
[1]
  Ranking: ***** (EC50≦25 nM (hAPJ), % IA≧80% and either % histamine≦35% or formal (+) charge≦1)
  inhibition of NKH477-stimulated increase in cAMP, dose dependent: inhibited

## CCCCCCCCCCCCCCCC(=O)N[C@H](C(=O)N[C@H](C(=O)N[C@@H](Cc1ccccc1)C(=O)N[C@@H](CCCNC(=N)N)C(=O)N[C@@H](CO)C(=O)N1CCC[C@H]1C(=O)N[C@@H](CO)C(=O)N[C@@H](CCC(=O)O)C(=O)N[C@H](CCCCN)C(=O)N[C@@H](CCCNC(=N)N)C(=O)N[C@@H](CCCNC(=N)N)C(=O)N1CCC[C@H]1C(=O)N[C@@H](CO)C(=O)N[C@@H](C)C(=O)N[C@@H](CC(=O)O)C(=O)N[C@H](C(=O)N[C@@H](Cc1ccccc1)C(N)=O)[C@@H](C)CC)C(C)C)[C@@H](C)O [Compound 22] (HELM PEPTIDE1{[CCCCCCCCCCCCCCCC(=O)[*:2]].T.V.F.R.S.P.S.E.[dK].R.R.P.S.A.D.I.F.[am]}$$$$V2.0)
Rat peritoneal cells
  Histamine (% vs. 48/80): 60%
[1]; [4]
  EC50: 17 nM
[1]; Table 6, hAPJ HEK cells
  % IA (cAMP inhibition, hAPJ HEK): 47%
[1]
  Ranking: * (EC50≦50 nM (hAPJ), % IA<50%)

## CCCCCCCCCCCCCCCC(=O)N[C@H](C(=O)N[C@H](C(=O)N[C@@H](Cc1ccccc1)C(=O)N[C@@H](CCCNC(=N)N)C(=O)N[C@@H](CO)C(=O)N[C@@H](CO)C(=O)N1CCC[C@H]1C(=O)N[C@@H](CCC(=O)O)C(=O)N[C@H](CCCCN)C(=O)N[C@@H](CCCNC(=N)N)C(=O)N[C@@H](CCCNC(=N)N)C(=O)N[C@@H](CO)C(=O)N1CCC[C@H]1C(=O)N[C@@H](C)C(=O)N[C@@H](CC(=O)O)C(=O)N[C@H](C(=O)N[C@@H](Cc1ccccc1)C(N)=O)[C@@H](C)CC)C(C)C)[C@@H](C)O [Compound 23] (HELM PEPTIDE1{[CCCCCCCCCCCCCCCC(=O)[*:2]].T.V.F.R.S.S.P.E.[dK].R.R.S.P.A.D.I.F.[am]}$$$$V2.0)
Rat peritoneal cells
  Histamine (% vs. 48/80): 67%
[1]; [4]
  EC50: 44 nM
[1]; Table 6, hAPJ HEK cells
  % IA (cAMP inhibition, hAPJ HEK): 63%
[1]
  Ranking: ** (EC50 25-50 nM (hAPJ), % IA 50-79% and either % histamine>35% or formal (+) charge>1)

## CCCCCCCCCCCCCCCC(=O)N[C@H](C(=O)N[C@H](C(=O)N[C@@H](Cc1ccccc1)C(=O)N[C@@H](CCCNC(=N)N)C(=O)N[C@@H](CO)C(=O)N[C@@H](CO)C(=O)N[C@@H](CCC(=O)O)C(=O)N[C@H](CCCCN)C(=O)N[C@@H](CCCNC(=N)N)C(=O)N[C@@H](CCCNC(=N)N)C(=O)N1CCC[C@H]1C(=O)N[C@@H](CO)C(=O)N[C@@H](C)C(=O)N[C@@H](CC(=O)O)C(=O)N[C@H](C(=O)N[C@@H](Cc1ccccc1)C(=O)N1CCC[C@H]1C(N)=O)[C@@H](C)CC)C(C)C)[C@@H](C)O [Compound 24] (HELM PEPTIDE1{[CCCCCCCCCCCCCCCC(=O)[*:2]].T.V.F.R.S.S.E.[dK].R.R.P.S.A.D.I.F.P.[am]}$$$$V2.0)
Rat peritoneal cells
  Histamine (% vs. 48/80): 54%
[1]; [2]
  Emax: ≥ 80%
[1]; [3]
  EC50: ≤ 25 nM
[1]; [4]
  EC50: 13 nM
[1]; Table 6, hAPJ HEK cells
  % IA (cAMP inhibition, hAPJ HEK): 88%
[1]
  Ranking: **** (EC50≦25 nM (hAPJ), % IA≧80% and either % histamine>35% or formal (+) charge>1)
  inhibition of NKH477-stimulated increase in cAMP, dose dependent: inhibited

## CCCCCCCCCCCCCCCC(=O)N1CCC[C@@H]1C(=O)N[C@H](C(=O)N[C@H](C(=O)N[C@@H](Cc1ccccc1)C(=O)N[C@@H](CCCNC(=N)N)C(=O)N[C@@H](CO)C(=O)N1CCC[C@@H]1C(=O)N[C@@H](CO)C(=O)N[C@@H](CCC(=O)O)C(=O)N[C@H](CCCCN)C(=O)N[C@@H](CCCNC(=N)N)C(=O)N[C@@H](CCCNC(=N)N)C(=O)N[C@@H](CO)C(=O)N[C@@H](C)C(=O)N[C@@H](CC(=O)O)C(=O)N[C@H](C(=O)N[C@@H](Cc1ccccc1)C(N)=O)[C@@H](C)CC)C(C)C)[C@@H](C)O [Compound 29, pTVFRSpSEkRRSADIF] (HELM PEPTIDE1{[CCCCCCCCCCCCCCCC(=O)[*:2]].[dP].T.V.F.R.S.[dP].S.E.[dK].R.R.S.A.D.I.F.[am]}$$$$V2.0)
Rat peritoneal cells
  Histamine (% vs. 48/80): 47%
[1]; [2]
  Emax: ≥ 80%
[1]; [3]
  EC50: ≤ 25 nM
[1]; [4]
  EC50: 20 nM
[1]; Table 6, hAPJ HEK cells
  % IA (cAMP inhibition, hAPJ HEK): 80%
[1]
  Ranking: **** (EC50≦25 nM (hAPJ), % IA≧80% and either % histamine>35% or formal (+) charge>1)
  inhibition of NKH477-stimulated increase in cAMP, dose dependent: inhibited

## CCCCCCCCCCCCCCCC(=O)N1CCC[C@H]1C(=O)N[C@H](CCCCN)C(=O)N[C@@H](CCCNC(=N)N)C(=O)N[C@@H](CCCNC(=N)N)C(=O)N[C@@H](CO)C(=O)N[C@@H](C)C(=O)N[C@@H](CC(=O)O)C(=O)N[C@H](C(=O)N[C@@H](Cc1ccccc1)C(=O)N[C@H](C(=O)N1CCC[C@H]1C(N)=O)[C@@H](C)CC)[C@@H](C)CC [Compound 30] (HELM PEPTIDE1{[CCCCCCCCCCCCCCCC(=O)[*:2]].P.[dK].R.R.S.A.D.I.F.I.P.[am]}$$$$V2.0)
Rat peritoneal cells
  Histamine (% vs. 48/80): 34%
[1]; [2]
  Emax: ≥ 80%
[1]; [3]
  EC50: ≤ 25 nM
[1]; [4]
  EC50: 16 nM
[1]; Table 6, hAPJ HEK cells
  % IA (cAMP inhibition, hAPJ HEK): 86%
[1]
  Ranking: ***** (EC50≦25 nM (hAPJ), % IA≧80% and either % histamine≦35% or formal (+) charge≦1)
  inhibition of NKH477-stimulated increase in cAMP, dose dependent: inhibited
